Assay results: ChEMBL document CHEMBL4396936 (Bioorg Med Chem Lett, 2019)

Tests used:
[1] = target: T1, Indoleamine 2,3-dioxygenase 1 (Homo sapiens, UniProt P14902); assay: Binding affinity to recombinant ferric state of IDO1 (unknown origin) expressed in Escherichia coli assessed as dissociation constant incubated for 30 mins by UV-Visible spectrophotometric method
Target sequence in this assay (P14902 whole entry): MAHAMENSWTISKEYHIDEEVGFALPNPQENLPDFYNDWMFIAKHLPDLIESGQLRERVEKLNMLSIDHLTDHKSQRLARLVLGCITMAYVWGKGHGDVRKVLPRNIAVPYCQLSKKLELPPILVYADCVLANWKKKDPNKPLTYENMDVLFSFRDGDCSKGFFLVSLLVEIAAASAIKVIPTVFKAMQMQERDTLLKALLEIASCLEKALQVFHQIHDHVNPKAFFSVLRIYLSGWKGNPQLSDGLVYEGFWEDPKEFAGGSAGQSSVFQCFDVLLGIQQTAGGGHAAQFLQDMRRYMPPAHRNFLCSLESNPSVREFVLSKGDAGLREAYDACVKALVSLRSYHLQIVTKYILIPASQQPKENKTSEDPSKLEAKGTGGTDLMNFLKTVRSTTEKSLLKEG

[2] = target: T1, Indoleamine 2,3-dioxygenase 1; assay: Binding affinity to recombinant ferrous state of IDO1 (unknown origin) expressed in Escherichia coli assessed as dissociation constant incubated for 30 mins by UV-Visible spectrophotometric method
Target sequence in this assay (P14902 whole entry): as above

[3] = target: T1, Indoleamine 2,3-dioxygenase 1; assay: Inhibition of recombinant IDO1 (unknown origin) expressed in Escherichia coli at 10 uM incubated for 30 mins by methylene blue dye based UV-Visible spectrophotometric method relative to control
Target sequence in this assay (P14902 whole entry, looked up): as the sequence (P14902 whole entry) above

[4] = target: Indoleamine 2,3-dioxygenase 1 (Homo sapiens, UniProt P14902, C129Y); assay: Binding affinity to recombinant ferrous state of IDO1 C129Y mutant (unknown origin) expressed in Escherichia coli assessed as dissociation constant incubated for 30 mins by UV-Visible spectrophotometric method
[5] = system: Indoleamine 2,3-dioxygenase 1 (Homo sapiens), P14902 [C129Y]; assay: Inhibition of recombinant IDO1 C129Y mutant (unknown origin) expressed in Escherichia coli at 10 uM incubated for 30 mins by methylene blue dye based UV-Visible spectrophotometric method relative to control
Chain of Indoleamine 2,3-dioxygenase 1 (Homo sapiens), P14902 [C129Y] (P14902 whole entry C129Y): as the sequence (P14902 whole entry) above, with C129Y counted along it

Chain of Indoleamine 2,3-dioxygenase 1 (Homo sapiens, UniProt P14902, C129Y) (P14902 whole entry C129Y): as the sequence (P14902 whole entry) above, with C129Y counted along it

Row | SMILES | Kd [1] [µM] | Kd [2] [µM] | inhibition [3] [%] | Kd [4] [µM] | inhibition [5] [%]
1 | Cc1cc([Si](C)(C)C)c2cn[nH]c2c1 | 2.5 | 1.7 | 50 |  | 
2 | C[Si](C)(C)c1cccc2[nH]ncc12 | 150 | 43 | 7.2 |  | 
3 | c1ccc2[nH]ncc2c1 |  |  | 1 |  | 
4 | OC(Cc1ccccc1)c1cc(C2CC2)cc2[nH]ncc12 (racemic) |  | 1.2 | 62 | 28 | 20
5 | OC(Cc1ccccc1)c1cc(-c2ccccc2)cc2[nH]ncc12 (racemic) |  | 53 | 4 |  | 14
6 | OC(Cc1ccccc1)c1cccc2[nH]ncc12 (racemic) | 31 | 7.9 | 13 | 66 | 14

Further lines, results first:

Row | Kd [1] [µM] | Kd [2] [µM] | inhibition [3] [%] | Kd [4] [µM] | inhibition [5] [%] | SMILES
7 | 0.6 | 0.14 | 90 | 2.2 | 23 | OC(Cc1ccccc1)c1cc(Br)cc2[nH]ncc12 (racemic)
8 | 1.1 | 0.74 | 70 | 44 | 18 | CCc1cc(C(O)Cc2ccccc2)c2cn[nH]c2c1 (racemic)
9 | 7.4 | 1.3 | 32 | 94 | 12 | C#Cc1cc(C(O)Cc2ccccc2)c2cn[nH]c2c1 (racemic)
10 | 1.2 | 0.47 | 76 | 27 | 18 | Cc1cc(C(O)Cc2ccccc2)c2cn[nH]c2c1 (racemic)
